Results on 16 molecules are retold here after publication PMC10612255, “Discovery of novel 2,3,4,5-tetrahydrospiro[benzo[c]azepine-1,1’-cyclohexan]-5-ol derivatives as PARP-1 inhibitors” (BMC Chemistry, 2023).

Where two headings read alike, the source gives them in different places.

For one series, the system named is OVCAR-3. In words: MTT assay, anti-proliferative effect on OVCAR-3 cells. The series is classed as cell-based, human. The conditions noted are these: read-out: IC50 OVCAR-3. The protocol:
(§1) A549, OVCAR-3, HCT-116, and MCF-7 were purchased from American type culture collection (ATCC, USA). […] And all cell lines used in the experiment were tested for mycoplasma contamination every two weeks.
(§2) A549, OVCAR-3, HCT-116, and MCF-7 cells were seeded in 96-well plates, and then treated with target compounds for 72 h. Then, 20 µL MTT (5 mg/mL, in PBS) was added into each well, and dissolved in 150 µL DMSO after incubation for 4 h. Finally, the absorbance was measured with microplate reader (490 nm).
In general terms: Tetrazolium dyes change colour on reduction, which living cells bring about.

The test system of another series is A549. Description: MTT assay, anti-proliferative effect on A549 cells. It counts as cell-based, human. The conditions noted are these: read-out: IC50 A549. On the procedure: as §1, §2
In another series the test system is MCF-7. In words: MTT assay, anti-proliferative effect on MCF-7 cells. It counts as cell-based, human. To be noted: read-out: IC50 MCF-7. The protocol:
as §1, §2

Another series concerns HCT-116. Description: MTT assay, anti-proliferative effect on HCT-116 cells. To be noted: read-out: IC50 HCT-116. The series is classed as cell-based, human. The protocol:
as §1, §2

Broadly, the IC50 is the point on the concentration scale where inhibition reaches its midpoint. As a reminder, the melting point is the temperature of the solid-liquid transition.

On to `COc1cccc(-n2cc(CN3CCC(O)c4ccccc4C34CCCCC4)nn2)c1` (stereo not drawn) [Compound 11 L, 2-((1-(3-methoxyphenyl)-1 H-1,2,3-triazol-4-yl)methyl)-2,3,4,5-tetrahydrospiro[benzo[c]azepine-1,1’-cyclohexan]-5-ol], for which the melting point lay within 172.3 to 174.1 °C. Also, the IC50 in the series with OVCAR-3 (Homo sapiens, OVCAR-3, 72 h) is 6.14 ± 0.56 µM. Besides, the concentration for half-maximal inhibition (IC50) with A549 (Homo sapiens, A549, 72 h) came out at 11.1 ± 2.98 µM. The IC50 in the series on MCF-7 (Homo sapiens, MCF7, 72 h) was 8.54 ± 1.65 µM. The IC50 in the series on HCT-116 (Homo sapiens, HCT-116, 72 h) was 11.7 ± 4.88 µM.

In turn, `Cc1ccc(-n2cc(CN3CCC(O)c4ccccc4C34CCCCC4)nn2)cc1` (stereo not drawn) [Compound 11 g, 2-((1-(p-tolyl)-1 H-1,2,3-triazol-4-yl)methyl)-2,3,4,5-tetrahydrospiro[benzo[c]azepine-1,1’-cyclohexan]-5-ol] displayed a melting point of 164.3 to 165.2 °C. In addition, the half-maximal inhibitory concentration (IC50) in the series with OVCAR-3 (Homo sapiens, OVCAR-3, 72 h) turned out to be 4.64 ± 0.99 µM. In the series with A549 (Homo sapiens, A549, 72 h), the IC50 came to 6.84 ± 1.68 µM. Further, the IC50 in the series on MCF-7 (Homo sapiens, MCF7, 72 h) stood at 7.96 ± 1.1 µM. The half-maximal inhibitory concentration (IC50) in the series on HCT-116 (Homo sapiens, HCT-116, 72 h) was 9.81 ± 2.89 µM.

With `OC1CCN(Cc2cn(-c3ccccc3Cl)nn2)C2(CCCCC2)c2ccccc21` (stereo not drawn) [Compound 11 h, 2-((1-(2-chlorophenyl)-1 H-1,2,3-triazol-4-yl)methyl)-2,3,4,5-tetrahydrospiro[benzo[c]azepine-1,1’-cyclohexan]-5-ol], the melting point is 167.9 to 168.3 °C. Besides, the IC50 in the series with OVCAR-3 (Homo sapiens, OVCAR-3, 72 h) was determined as 4.44 ± 0.1 µM. In addition, the IC50 with A549 (Homo sapiens, A549, 72 h) stood at 15.1 ± 1.18 µM. The IC50 with MCF-7 (Homo sapiens, MCF7, 72 h) is 6.5 ± 1.78 µM. The IC50 with HCT-116 (Homo sapiens, HCT-116, 72 h) amounted to 8.97 ± 3.16 µM.

With `COc1ccc(-n2cc(CN3CCC(O)c4ccccc4C34CCCCC4)nn2)cc1` (stereo not drawn) [Compound 11 m, 2-((1-(4-methoxyphenyl)-1 H-1,2,3-triazol-4-yl)methyl)-2,3,4,5-tetrahydrospiro[benzo[c]azepine-1,1’-cyclohexan]-5-ol], the melting point was in the range of 170.2 to 172.3 °C. For the same molecule, in the series on OVCAR-3 (Homo sapiens, OVCAR-3, 72 h), the half-maximal inhibitory concentration (IC50) turned out to be 6 ± 1.83 µM. For the same molecule, the 50% inhibitory concentration (IC50) in the series with A549 (Homo sapiens, A549, 72 h) turned out to be 8.7 ± 4.1 µM. The IC50 in the series with MCF-7 (Homo sapiens, MCF7, 72 h) was determined as 9.33 ± 1.33 µM. The IC50 in the series with HCT-116 (Homo sapiens, HCT-116, 72 h) turned out to be 5.87 ± 0.54 µM.

On to `OC1CCN(Cc2cn(-c3ccccc3)nn2)C2(CCCCC2)c2ccccc21` (stereo not drawn) [Compound 11a, 2-((1-phenyl-1 H-1,2,3-triazol-4-yl)methyl)-2,3,4,5-tetrahydrospiro[benzo[c]azepine-1,1’-cyclohexan]-5-ol], for which the IC50 with OVCAR-3 (Homo sapiens, OVCAR-3, 72 h) turned out to be 13.6 ± 2.45 µM; in the series with A549 (Homo sapiens, A549, 72 h), 9.5 ± 1.23 µM; in the series on MCF-7 (Homo sapiens, MCF7, 72 h), 15.5 ± 2.53 µM; in the series on HCT-116 (Homo sapiens, HCT-116, 72 h), 10.3 ± 2.74 µM.

Regarding `OC1CCN(Cc2cn(-c3cccc(F)c3)nn2)C2(CCCCC2)c2ccccc21` (stereo not drawn) [Compound 11c, 2-((1-(3-fluorophenyl)-1 H-1,2,3-triazol-4-yl)methyl)-2,3,4,5-tetrahydrospiro[benzo[c]azepine-1,1’-cyclohexan]-5-ol], the IC50 with OVCAR-3 (Homo sapiens, OVCAR-3, 72 h) was 7.65 ± 2.56 µM; with A549 (Homo sapiens, A549, 72 h), 4.29 ± 0.56 µM; in the series on MCF-7 (Homo sapiens, MCF7, 72 h) it was 7.6 ± 1.96 µM; with HCT-116 (Homo sapiens, HCT-116, 72 h), 12.6 ± 2.43 µM.

Molecule `OC1CCN(Cc2cn(-c3ccc(F)cc3)nn2)C2(CCCCC2)c2ccccc21` (stereo not drawn) [Compound 11d, 2-((1-(4-fluorophenyl)-1 H-1,2,3-triazol-4-yl)methyl)-2,3,4,5-tetrahydrospiro[benzo[c]azepine-1,1’-cyclohexan]-5-ol] gave a melting point of 166.2 to 166.8 °C. Besides, the IC50 with OVCAR-3 (Homo sapiens, OVCAR-3, 72 h) is 17.1 ± 1.5 µM. Further, in the series on A549 (Homo sapiens, A549, 72 h), the IC50 was 4.88 ± 1.18 µM. Further, in the series with MCF-7 (Homo sapiens, MCF7, 72 h), the IC50 was 16.2 ± 3.88 µM. Also, the IC50 with HCT-116 (Homo sapiens, HCT-116, 72 h) stood at 8.76 ± 3.11 µM.

`Cc1ccccc1-n1cc(CN2CCC(O)c3ccccc3C23CCCCC3)nn1` (stereo not drawn) [Compound 11e, 2-((1-(o-tolyl)-1 H-1,2,3-triazol-4-yl)methyl)-2,3,4,5-tetrahydrospiro[benzo[c]azepine-1,1’-cyclohexan]-5-ol] returned a melting point of 165.2 to 166 °C. The half-inhibitory concentration (IC50) with OVCAR-3 (Homo sapiens, OVCAR-3, 72 h) was determined as 7.95 ± 3.35 µM. In addition, the IC50 with A549 (Homo sapiens, A549, 72 h) was found to be 15.6 ± 2.8 µM. In the series on MCF-7 (Homo sapiens, MCF7, 72 h), the IC50 was 9.33 ± 4.08 µM. For the same molecule, in the series with HCT-116 (Homo sapiens, HCT-116, 72 h), the IC50 came to 9.22 ± 4.57 µM.

Take `Cc1cccc(-n2cc(CN3CCC(O)c4ccccc4C34CCCCC4)nn2)c1` (stereo not drawn) [Compound 11f, 2-((1-(m-tolyl)-1 H-1,2,3-triazol-4-yl)methyl)-2,3,4,5-tetrahydrospiro[benzo[c]azepine-1,1’-cyclohexan]-5-ol]: the melting point is 167.3 to 168.2 °C. In addition, the IC50 in the series with OVCAR-3 (Homo sapiens, OVCAR-3, 72 h) is 21.7 ± 8.94 µM. Moreover, in the series on A549 (Homo sapiens, A549, 72 h), the IC50 came to 11.8 ± 1.07 µM. Besides, the IC50 in the series on MCF-7 (Homo sapiens, MCF7, 72 h) was found to be 8.94 ± 3.17 µM. Also, the IC50 in the series on HCT-116 (Homo sapiens, HCT-116, 72 h) stood at 12.2 ± 2.01 µM.

Molecule `OC1CCN(Cc2cn(-c3cccc(Cl)c3)nn2)C2(CCCCC2)c2ccccc21` (stereo not drawn) [Compound 11i, 2-((1-(3-chlorophenyl)-1 H-1,2,3-triazol-4-yl)methyl)-2,3,4,5-tetrahydrospiro[benzo[c]azepine-1,1’-cyclohexan]-5-ol] came in with a melting point of 168.1 to 168.8 °C. For the same molecule, the IC50 with OVCAR-3 (Homo sapiens, OVCAR-3, 72 h) was 4.28 ± 0.77 µM. In the series with A549 (Homo sapiens, A549, 72 h), the IC50 amounted to 13.6 ± 2.47 µM. For the same molecule, the IC50 with MCF-7 (Homo sapiens, MCF7, 72 h) was determined as 6.34 ± 3.17 µM. Also, the IC50 in the series with HCT-116 (Homo sapiens, HCT-116, 72 h) stood at 10.8 ± 2.95 µM.

For the molecule `COc1ccccc1-n1cc(CN2CCC(O)c3ccccc3C23CCCCC3)nn1` (stereo not drawn) [Compound 11k, 2-((1-(2-methoxyphenyl)-1 H-1,2,3-triazol-4-yl)methyl)-2,3,4,5-tetrahydrospiro[benzo[c]azepine-1,1’-cyclohexan]-5-ol], the IC50 in the series with OVCAR-3 (Homo sapiens, OVCAR-3, 72 h) amounted to 10.5 ± 0.09 µM; in the series with A549 (Homo sapiens, A549, 72 h), 12.6 ± 5.91 µM; in the series on MCF-7 (Homo sapiens, MCF7, 72 h) it was 7.54 ± 1.05 µM; in the series with HCT-116 (Homo sapiens, HCT-116, 72 h), 13.1 ± 2.03 µM.

Take `OC1CCN(Cc2cn(-c3ccc(Br)cc3)nn2)C2(CCCCC2)c2ccccc21` (stereo not drawn) [Compound 11p, 2-((1-(4-bromophenyl)-1 H-1,2,3-triazol-4-yl)methyl)-2,3,4,5-tetrahydrospiro[benzo[c]azepine-1,1’-cyclohexan]-5-ol]: the half-inhibitory concentration (IC50) in the series with OVCAR-3 (Homo sapiens, OVCAR-3, 72 h) turned out to be 12.7 ± 1.43 µM; with A549 (Homo sapiens, A549, 72 h), 9.58 ± 2.53 µM; with MCF-7 (Homo sapiens, MCF7, 72 h), 16.4 ± 4.37 µM; in the series with HCT-116 (Homo sapiens, HCT-116, 72 h) it was 9.93 ± 3.01 µM.

`N#Cc1ccccc1-n1cc(CN2CCC(O)c3ccccc3C23CCCCC3)nn1` (stereo not drawn) [Compound 11t, 2-(4-((5-hydroxy-4,5-dihydrospiro[benzo[c]azepine-1,1’-cyclohexan]-2(3 H)-yl)methyl)-1 H-1,2,3-triazol-1-yl)benzonitrile]: the IC50 in the series on OVCAR-3 (Homo sapiens, OVCAR-3, 72 h) was greater than 50 µM; in the series on A549 (Homo sapiens, A549, 72 h), greater than 50 µM; in the series with MCF-7 (Homo sapiens, MCF7, 72 h) it was greater than 50 µM; in the series on HCT-116 (Homo sapiens, HCT-116, 72 h) it was greater than 50 µM.

In the case of `N#Cc1cccc(-n2cc(CN3CCC(O)c4ccccc4C34CCCCC4)nn2)c1` (stereo not drawn) [Compound 11u, 3-(4-((5-hydroxy-4,5-dihydrospiro[benzo[c]azepine-1,1’-cyclohexan]-2(3 H)-yl)methyl)-1 H-1,2,3-triazol-1-yl)benzonitrile], the IC50 in the series on OVCAR-3 (Homo sapiens, OVCAR-3, 72 h) was greater than 50 µM; in the series on A549 (Homo sapiens, A549, 72 h), greater than 50 µM; in the series with MCF-7 (Homo sapiens, MCF7, 72 h), greater than 50 µM; in the series on HCT-116 (Homo sapiens, HCT-116, 72 h), greater than 50 µM.

In the case of `N#Cc1ccc(-n2cc(CN3CCC(O)c4ccccc4C34CCCCC4)nn2)cc1` (stereo not drawn) [Compound 11v, 4-(4-((5-hydroxy-4,5-dihydrospiro[benzo[c]azepine-1,1’-cyclohexan]-2(3 H)-yl)methyl)-1 H-1,2,3-triazol-1-yl)benzonitrile], the half-inhibitory concentration (IC50) was greater than 50 µM in the series on OVCAR-3 (Homo sapiens, OVCAR-3, 72 h); greater than 50 µM in the series with A549 (Homo sapiens, A549, 72 h); greater than 50 µM with MCF-7 (Homo sapiens, MCF7, 72 h); greater than 50 µM with HCT-116 (Homo sapiens, HCT-116, 72 h).

In the case of `CNCc1ccc(-c2[nH]c3cc(F)cc4c3c2CCNC4=O)cc1` [Rucaparib, reference compound], the half-maximal inhibitory concentration (IC50) in the series on OVCAR-3 (OVCAR-3, human ovarian cancer cell line, MTT, 72 h, Mean ± SD) was 2.41 ± 0.13 µM; with A549 (A549, human lung adenocarcinoma cell line, MTT, 72 h, Mean ± SD), 4.91 ± 0.11 µM; in the series with MCF-7 (MCF7, human breast cancer cell line, MTT, 72 h, Mean ± SD), 13 ± 0.28 µM; in the series on HCT-116 (HCT-116, human colon cancer cell line, MTT, 72 h, Mean ± SD), 13.5 ± 0.17 µM.
